Measured values from patent US8846739B2, “TGR5 agonists” (Exelixis Patent Company LLC, priority 2009, dated 2014).

Assays:
human TGR5 (h-TGR5) = target: T1, human TGR5 (h-TGR5) (Homo sapiens, UniProt Q8TDU6); test: TGR5/CRE-Luciferase Assay; type: cell-based; conditions: HEK 293 hTGR5/CRE-Luc cells, 6 hours incubation, read-out: CRE-Luc Agonist (EC50)
T1 sequence (Q8TDU6 1-330): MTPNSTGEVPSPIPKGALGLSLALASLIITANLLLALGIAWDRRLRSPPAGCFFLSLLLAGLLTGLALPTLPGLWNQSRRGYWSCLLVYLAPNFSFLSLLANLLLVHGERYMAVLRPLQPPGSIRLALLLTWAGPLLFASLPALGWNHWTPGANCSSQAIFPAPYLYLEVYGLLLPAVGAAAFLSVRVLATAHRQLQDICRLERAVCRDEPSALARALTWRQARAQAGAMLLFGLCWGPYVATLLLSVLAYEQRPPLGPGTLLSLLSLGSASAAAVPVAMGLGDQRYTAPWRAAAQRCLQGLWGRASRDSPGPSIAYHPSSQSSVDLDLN
Method in brief: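 HEK 293 CRE-Luciferase cells stably expressing the receptor, plated in DMEM 18-20 h before assay, then exposed to serially diluted compounds (DMEM with 5% DMSO) for 6 h. Luciferase read-out after lysis; EC50 from dose-response.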

h-TGR5 = target: T2, h-TGR5 (Homo sapiens, UniProt Q8TDU6); test: TGR5 cAMP Assay using Cisbio cAMP Dynamic 2 htrf assay kit; type: cell-based; conditions: hTGR5CRE-luc HEK 293 cells
T2 sequence (Q8TDU6 1-330): T1 sequence (Q8TDU6 1-330)

Compound | EC50 (human TGR5 (h-TGR5)) [nM] | EC50 (h-TGR5) [nM]
COc1cc(C(C)(C)c2cnc(SCc3c(F)cc(S(=O)(=O)N(CCC[n+]4ccn(C)c4)[C@H](C)C(=O)O)cc3Cl)n2-c2ccc(F)cc2)ccc1Cl [Compound 15b, (R)-3-(3-(N-(1-carboxyethyl)-3-chloro-4-((5-(2-(4-chloro-3-methoxyphenyl)propan-2-yl)-1-(4-fluorophenyl)-1H-imidazol-2-ylthio)methyl)-5-fluorophenylsulfonamido)propyl)-1-methyl-1H-imidazol-3-ium chloride] | < 100 | < 100
COc1cc(C(C)(C)c2cnc(SCc3c(F)cc(S(=O)(=O)NCCc4ccc[n+](C)c4)cc3Cl)n2-c2ccc(F)cc2)ccc1F [Compound 11, 3-(2-(3-chloro-5-fluoro-4-((5-(2-(4-fluoro-3-methoxyphenyl)propan-2-yl)-1-(4-fluorophenyl)-1H-imidazol-2-ylthio)methyl)phenylsulfonamido)ethyl)-1-methylpyridinium chloride] | < 100 | < 100
COc1cc(C(C)(C)c2cnc(SCc3c(F)cc(C(=O)N[C@H]4CC[N+](C)(C)C4)cc3Cl)n2-c2ccc(F)cc2)ccc1F [Example 2q, (3S)-3-({[3-chloro-5-fluoro-4-({[5-{1-[4-fluoro-3-(methyloxy)phenyl]-1-methylethyl}-1-(4-fluorophenyl)-1H-imidazol-2-yl]thio}methyl)phenyl]carbonyl}amino)-1,1-dimethylpyrrolidinium] | < 100 | < 100
COc1cc(C(C)(C)c2cnc(SCc3c(F)cc(S(=O)(=O)N(CCC[N+](C)(C)C)[C@H](C)C(=O)O)cc3Cl)n2-c2ccc(F)cc2)ccc1Cl [Compound 14y, 3-([(1R)-1-carboxyethyl]{[3-chloro-4-({[5-{1-[4-chloro-3-(methyloxy)phenyl]-1-methylethyl}-1-(4-fluorophenyl)-1H-imidazol-2-yl]thio}methyl)-5-fluorophenyl]sulfonyl}amino)-N,N,N-trimethylpropan-1-aminium] | < 100 | < 100
COc1cc(C(C)(C)c2cnc(SCc3c(F)cc(S(=O)(=O)N(CCC[N+](C)(C)C)Cc4cccc(C(=O)O)c4)cc3F)n2-c2ccc(F)cc2)ccc1Cl [Compound 14v, 3-([(3-carboxyphenyl)methyl]{[4-({[5-{1-[4-chloro-3-(methyloxy)phenyl]-1-methylethyl}-1-(4-fluorophenyl)-1H-imidazol-2-yl]thio}methyl)-3,5-difluorophenyl]sulfonyl}amino)-N,N,N-trimethylpropan-1-aminium] | < 100 | < 100
COc1cc(C(C)(C)c2cnc(SCc3c(F)cc(C(=O)NC4CC[N+](C)(C)CC4)cc3Cl)n2-c2ccc(F)cc2)ccc1Cl [Example 2c, 4-({[3-chloro-4-({[5-{1-[4-chloro-3-(methyloxy)phenyl]-1-methylethyl}-1-(4-fluorophenyl)-1H-imidazol-2-yl]thio}methyl)-5-fluorophenyl]carbonyl}amino)-1,1-dimethylpiperidinium] | < 100 | < 100
COc1cc(C(C)(C)c2cnc(SCc3c(F)cc(S(=O)(=O)N(C)[C@H](CCC[N+](C)(C)C)C(=O)O)cc3F)n2-c2ccc(F)cc2)ccc1Cl [Compound 17c, (R)-4-carboxy-4-(4-((5-(2-(4-chloro-3-methoxyphenyl)propan-2-yl)-1-(4-fluorophenyl)-1H-imidazol-2-ylthio)methyl)-3,5-difluoro-N-methylphenylsulfonamido)-N,N,N-trimethylbutan-1-aminium 2,2,2-trifluoroacetate] | < 100 | < 100
COc1cc(C(C)(C)c2cnc(SCc3c(F)cc(S(=O)(=O)N(C)[C@@H](CCC[N+](C)(C)C)C(=O)O)cc3F)n2-c2ccc(F)cc2)ccc1F [Compound 14e, (S)-4-carboxy-4-(3,5-difluoro-4-((5-(2-(4-luoro-3-methoxyphenyl)propan-2-yl)-1-(4-fluorophenyl)-1H-imidazol-2-ylthio)methyl)-N-methylphenylsulfonamido)-N,N,N-trimethylbutan-1-aminium chloride] | < 100 | < 100
COc1cc(C(C)(C)c2cnc(SCc3c(F)cc(C(=O)NCC[N+](C)(C)C)cc3Cl)n2-c2ccc(F)cc2)ccc1Cl [Example 1, 2-(3-chloro-4-((S-(2-(4-chloro-3-methoxyphenyl)propan-2-yl)-1-(4-fluorophenyl)-1H-imidazol-2-ylthio)methyl)-S-fluorobenzamido)-N,N,N-trimethylethanaminium chloride] | < 100 | < 100
COc1cc(-n2c(C(C)(C)c3ccc(Cl)c(Cl)c3)cnc2SCc2c(F)cc(S(=O)(=O)NCCC[N+](C)(C)C)cc2F)ccc1F [Example 6e, 3-[({4-[({5-[1-(3,4-dichlorophenyl)-1-methylethyl]-1-[4-fluoro-3-(methyloxy)phenyl]-1H-imidazol-2-yl}thio)methyl]-3,5-difluorophenyl}sulfonyl)amino]-N,N,N-trimethylpropan-1-aminium] | < 100 | < 100
COc1cc(C(C)(C)c2cnc(SCc3ccc(Cl)c(S(=O)(=O)NCCC[N+](C)(C)C)c3)n2-c2ccc(F)cc2)ccc1Cl [Example 6l, 3-({[2-chloro-5-({[5-{1-[4-chloro-3-(methyloxy)phenyl]-1-methylethyl}-1-(4-fluorophenyl)-1H-imidazol-2-yl]thio}methyl)phenyl]sulfonyl}amino)-N,N,N-trimethylpropan-1-aminium] | < 100 | < 100
COc1cc(C(C)(C)c2cnc(SCc3c(F)cc(S(=O)(=O)N(CCC[N+](C)(C)C)C4CC4)cc3Cl)n2-c2ccc(F)cc2)ccc1F [Compound 14k, 3-[{[3-chloro-5-fluoro-4-({[5-{1-[4-fluoro-3-(methyloxy)phenyl]-1-methylethyl}-1-(4-fluorophenyl)-1H-imidazol-2-yl]thio}methyl)phenyl]sulfonyl} (cyclopropyl)amino]-N,N,N-trimethylpropan-1-aminium] | < 100 | < 100
COc1cc(C(C)(C)c2cnc(SCc3c(F)cc(S(=O)(=O)N(CCC[N+](C)(C)C)[C@@H](CCC(=O)O)C(=O)O)cc3F)n2-c2ccc(F)cc2)ccc1Cl [Compound 14ag, (S)-3-(4-((5-(2-(4-chloro-3-methoxyphenyl)propan-2-yl)-1-(4-fluorophenyl)-1H-imidazol-2-ylthio)methyl)-N-(1,3-dicarboxypropyl)-3,5-difluorophenylsulfonamido)-N,N,N-trimethylpropan-1-aminium] | < 100 | 100 to 1000
COc1cc(C(C)(C)c2cnc(SCc3c(F)cc(S(=O)(=O)N4CCC([N+](C)(C)C)CC4)cc3Cl)n2-c2ccc(F)cc2)ccc1F [Compound 11o, 1-{[3-chloro-5-fluoro-4-({[5-{1-[4-fluoro-3-(methyloxy)phenyl]-1-methylethyl}-1-(4-fluorophenyl)-1H-imidazol-2-yl]thio}methyl)phenyl]sulfonyl}-N,N,N-trimethylpiperidin-4-aminium] | < 100 | < 100
COc1cc(C(C)(C)c2cnc(SCc3c(F)cc(S(=O)(=O)N(CCC[N+](C)(C)C)[C@H](C(=O)O)C(C)C)cc3F)n2-c2ccc(F)cc2)ccc1Cl [Compound 14p, 3-([(1S)-1-carboxy-2-methylpropyl]{[4-({[5-{1-[4-chloro-3-(methyloxy)phenyl]-1-methylethyl}-1-(4-fluorophenyl)-1H-imidazol-2-yl]thio}methyl)-3,5-difluorophenyl]sulfonyl}amino)-N,N,N-trimethylpropan-1-aminium] | < 100 | < 100
